Like-named read-outs stand apart in the source and are kept apart here.
Legend:
HIF-1α = assay: HIF1 activation, ODD reporter assay; format: cell-based; conditions: measured at 10 μM
Method: (§1) The present compounds were evaluated for an ability to activate Nrf2 and HIF-1α. Table 1 summarizes Nrf2 activation data obtained in Neh2-luc reporter assay; and HIF1 activation measured in ODD reporter assay.

acetylated α-tubulin = assay: Tubulin acetylation in N2a cells (western blot); format: cell-based, mouse; conditions: normalized to the values of DMSO
Method: Cells were collected using RIPA buffer. WB was analyzed using Image QuantTL and the ratio between the intensity of the acetylated tubulin and the tubulin bands was calculated. These ratios were subsequently normalized to the values of DMSO (fold increase). For each sample 50 μg protein was loaded on a 12% SDS-PAGE gel and blotted on a PVDF membrane. The integrated density of acetylated α-tubulin and α-tubulin was measured on WB using Image J software. Furthermore the ratio between the integrated density of acetylated α-tubulin and α-tubulin was calculated.

Nrf2 = Nrf2 activation, Neh2-luc reporter assay; format: cell-based; conditions: measured at 10 μM
Method: as §1

Human HDAC1 = biological target: T1, Human HDAC1 (Homo sapiens, UniProt Q13547); assay: HDAC1 inhibition assay (fluorogenic p53 peptide substrate); format: biochemical
T1 construct: Full length with C-terminal GST tag, MW=79.9 kDa; GST (C); host or cells: Sf9 insect cells (baculovirus)
T1 sequence (Q13547 whole entry): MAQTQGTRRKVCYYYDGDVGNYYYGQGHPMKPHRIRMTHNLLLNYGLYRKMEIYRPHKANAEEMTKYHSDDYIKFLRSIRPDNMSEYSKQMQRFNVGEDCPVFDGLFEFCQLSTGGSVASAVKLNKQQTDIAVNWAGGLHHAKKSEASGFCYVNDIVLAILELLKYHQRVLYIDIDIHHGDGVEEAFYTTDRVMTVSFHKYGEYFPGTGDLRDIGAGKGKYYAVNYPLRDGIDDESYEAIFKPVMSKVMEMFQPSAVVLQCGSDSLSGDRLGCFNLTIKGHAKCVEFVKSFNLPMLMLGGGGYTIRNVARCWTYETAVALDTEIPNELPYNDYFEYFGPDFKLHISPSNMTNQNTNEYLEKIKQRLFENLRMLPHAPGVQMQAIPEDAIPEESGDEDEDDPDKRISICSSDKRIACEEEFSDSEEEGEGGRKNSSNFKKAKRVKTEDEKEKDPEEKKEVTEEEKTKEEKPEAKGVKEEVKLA
Method: The HDAC1, 2, 4, 5, 6, 7, 8, 9, 10, and 11 assays used isolated recombinant human protein; HDAC3/NcoR2 complex was used for the HDAC3 assay. Substrate for HDAC1, 2, 3, 6, 10, and 11 assays is a fluorogenic peptide from p53 residues 379-382 (RHKKAc); substrate for HDAC8 is fluorogenic diacyl peptide based on residues 379-382 of p53 (RHKAcKAc). Acetyl-Lys(trifluoroacetyl)-AMC substrate was used for HDAC4, 5, 7, and 9 assays. Compounds were dissolved in DMSO and tested in 10-dose IC50 mode with 3-fold serial dilution starting at 30 μM. Control Compound Trichostatin A (TSA) was tested in a 10-dose IC50 with 3-fold serial dilution starting at 5 μM. IC50 values were extracted by curve-fitting the dose/response slopes. Assays were performed in duplicate and IC50 values are an average of data from both experiments.
Human HDAC1 (GenBank Accession No. NM_004964): Full length with C-terminal GST tag, MW=79.9 kDa, expressed by baculovirus expression system in Sf9 cells. Enzyme is in 50 mM Tris-HCl, pH 8.0, 138 mM NaCl, 20 mM glutathione, and 10% glycerol, and stable for >6 months at −80° C. Purity is >10% by SDS-PAGE. Specific Activity is 20 U/μg, where one U=1 pmol/min under assay condition of 25 mM Tris/Cl, pH8.0, 137 mM NaCl, 2.7 mM KCl, 1 mM MgCl2, 0.1 mg/ml BSA, 100 μM HDAC substrate, and 13.2 ng/μl HDAC1, incubation for 30 min at 30° C.
Substrate for HDAC1 and HDAC6: Acetylated peptide substrate for HDAC, based on residues 379-382 of p53 (Arg-His-Lys-Lys(Ac)), a site of regulatory acetylation by the p300 and CBP acetyltransferases (lysines 381, 382)1-6, is the best for HDAC from among a panel of substrates patterned on p53, histone H3 and histone H4 acetylation sites7.
Reaction Buffer: 50 mM Tris-HCl, pH 8.0, 137 mM NaCl, 2.7 mM KCl, 1 mM MgCl2, 1 mg/ml BSA.
HDAC1: 75 nM HDAC1 and 50 μM HDAC substrate are in the reaction buffer and 1% DMSO final. Incubate for 2 hours at 30° C.
All IC50 values are automatically calculated using the GraphPad Prism version 5 and Equation of Sigmoidal dose-response (variable slope): Y=Bottom+(Top−Bottom)/(1+10^((Log EC50−X)*HillSlope)), where X is the logarithm of concentration, Y is the response, Y starts at Bottom and goes to Top with a sigmoid shape. In most cases, “Bottom” is set 0, and “Top” is set “less than 120%”. This is identical to the “four parameter logistic equation”. IC50 curves also are drawn using the GraphPad Prism, and IC50 values and Hill slopes are provided.
HDAC Activity Assays: HDAC assay is performed using fluorescently-labeled acetylated substrate, which comprises an acetylated lysine side chain. After incubation with HDAC, deacetylation of the substrate sensitizes the substrate such that, in a second step, treatment with the detection enzyme produces a fluorophore. HDACs 1 and 6 were expressed as full length fusion proteins. Purified proteins were incubated with 50 μM fluorescently-labeled acetylated peptide substrate and test compound for 2 hours at RT in HDAC assay buffer containing 50 mM Tris-HCl (pH 8.0), 137 mM NaCl, 2.7 mM KCl, 1 mM MgCl2, 1% DMSO, and 1% BSA.
Reactions were terminated by the addition of the Developer after 2 hours, and the development of fluorescence signal, which was relative to the amount of deacetylated peptide, was monitored by time-course measurement of EnVision (PerkinElmer). The HDAC activity was estimated from the slope of time-course measurement of the fluorescence intensity. The slope of no-enzyme control (substrate alone) was served as background, and % Enzyme activity was calculated using background-subtracted slope of no inhibitor control (DMSO) as 100% activity.

[1] = Table 1, performed by Reaction Biology Corporation, read-out: HDAC isoform IC50 (nM) 1
[2] = Table 2 isoform selectivity, read-out: HDAC Inhibition (IC50 uM) isoform 1

Compound	fold induction at 10 µM (HIF-1α)	Ratio acetyl tub/tub fold increase (acetylated α-tubulin; 0.01 uM)	fold induction at 10 µM (Nrf2)	IC50 (Human HDAC1; [1]) [nM]	IC50 (Human HDAC1; [2]) [nM]	Ratio acetyl tub/tub fold increase (acetylated α-tubulin; 1.0 uM)	Ratio acetyl tub/tub fold increase (acetylated α-tubulin; 0.1 uM)
Cn1c(NCc2ccc(C(=O)NO)cc2)nc2ccccc21 [II-ING-13, N-Hydroxy-4-(((1-methyl-1H-benzo[d]imidazol-2-yl)amino)methyl)benzamide]	2.6	2.0 (0.01 uM) fold	1.8	2630	2550	–	–
O=C(NO)c1ccc(CN2CCc3ccc(Cl)cc32)cc1 [II-ING-6, 4-((6-Chloroindolin-1-yl)methyl)-N-hydroxybenzamide]	7.5	–	5.6	5580	3770	15.5 1.0 uM fold	–
O=C(NO)c1ccc(CN2CCc3cc(F)ccc32)cc1 [II-ING-42, 4-((5-Fluoroindolin-1-yl)methyl)-N-hydroxybenzamide]	1.4	–	7.7	20000	–	–	2.46 (0.1 uM) fold
O=C(NO)c1ccc(CN2CCc3ccccc32)cc1 [II-ING-44, N-Hydroxy-4-(indolin-1-ylmethyl)benzamide]	1.4	–	2.3	17600	–	–	2.68 (0.1 uM) fold
O=C(NO)c1ccc(CN2C(=O)C(F)(F)c3ccccc32)cc1 [II-ING-66, 4-((3,3-Difluoro-2-oxoindolin-1-yl)methyl)-N-hydroxybenzamide]	5.6	–	9.9	3550	–	–	–
O=C(NO)c1ccc(CN2CCc3cc(Cl)ccc32)cc1 [II-ING-39, 4-((5-Chloroindolin-1-yl)methyl)-N-hydroxybenzamide]	7	–	6.5	12700	–	–	1.69 (0.1 uM) fold
COc1ccc2c(c1)CCN2Cc1ccc(C(=O)NO)cc1 [II-ING-49, N-Hydroxy-4-((5-methoxyindolin-1-yl)methyl)benzamide]	1	–	2.4	4950	–	–	2.61 (0.1 uM) fold
O=C(NO)c1ccc(CN2CCc3ccc(F)cc32)cc1 [II-ING-41, 4-((6-Fluoroindolin-1-yl)methyl)-N-hydroxybenzamide]	3.6	–	7.8	11800	3670	–	3.47 (0.1 uM) fold
